Measurements taken from US9587005B2 (priority 2010, dated 2017).
Where two headings read alike, the source gives them in different places. *1 amine or outer side, *2 acyl side, *3 side chain or, on linkers, in order; H or OH if unused. Where a SMILES comes first, the peptide text is derived from it. Where no end group is shown, it is not given here. Side-chain parts run from the residue outwards. [ ]: non-standard residue; d: D form. The star is where a group is joined. γGlu = O=C(O)[C@H](CCC(=O)[*:2])N[*:1]; X3 = CCCCCCCCCCCCCCC(CC(=O)*)C(=O)O; Palmitoyl = CCCCCCCCCCCCCCCC(=O)*; Aib = CC(C)(N)C(=O)O

Columns and labels:
Format in all cases: cell-based
glucagon receptor = target: T1, glucagon receptor (Homo sapiens, UniProt P47871); experiment: cAMP induction, firefly luciferase reporter assay in HEK293 cells co-transfected with glucagon receptor
T1 construct: expressed in transfected cells; host or cells: HEK293
T1 sequence (P47871 26-477): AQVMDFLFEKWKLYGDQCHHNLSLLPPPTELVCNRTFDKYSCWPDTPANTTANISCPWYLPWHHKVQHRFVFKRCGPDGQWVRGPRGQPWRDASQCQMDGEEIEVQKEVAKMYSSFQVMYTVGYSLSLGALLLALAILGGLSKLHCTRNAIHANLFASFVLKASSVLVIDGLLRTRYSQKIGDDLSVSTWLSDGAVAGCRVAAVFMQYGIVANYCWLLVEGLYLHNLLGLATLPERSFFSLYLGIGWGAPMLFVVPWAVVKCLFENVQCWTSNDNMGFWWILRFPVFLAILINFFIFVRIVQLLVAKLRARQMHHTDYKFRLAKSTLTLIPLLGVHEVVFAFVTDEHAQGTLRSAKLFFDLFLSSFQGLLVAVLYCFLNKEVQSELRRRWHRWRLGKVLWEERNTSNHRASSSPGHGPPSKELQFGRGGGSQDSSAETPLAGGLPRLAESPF
Source text: (§1) This example describes an exemplary method of testing the biological activity of the peptides of the present disclosures, which method involves assaying cAMP synthesis.

GLP-1 receptor = target: T2, GLP-1 receptor (Homo sapiens, UniProt P43220); experiment: cAMP induction, firefly luciferase reporter assay in HEK293 cells co-transfected with GLP-1 receptor
T2 construct: expressed in transfected cells; host or cells: HEK293
T2 sequence (P43220 24-463): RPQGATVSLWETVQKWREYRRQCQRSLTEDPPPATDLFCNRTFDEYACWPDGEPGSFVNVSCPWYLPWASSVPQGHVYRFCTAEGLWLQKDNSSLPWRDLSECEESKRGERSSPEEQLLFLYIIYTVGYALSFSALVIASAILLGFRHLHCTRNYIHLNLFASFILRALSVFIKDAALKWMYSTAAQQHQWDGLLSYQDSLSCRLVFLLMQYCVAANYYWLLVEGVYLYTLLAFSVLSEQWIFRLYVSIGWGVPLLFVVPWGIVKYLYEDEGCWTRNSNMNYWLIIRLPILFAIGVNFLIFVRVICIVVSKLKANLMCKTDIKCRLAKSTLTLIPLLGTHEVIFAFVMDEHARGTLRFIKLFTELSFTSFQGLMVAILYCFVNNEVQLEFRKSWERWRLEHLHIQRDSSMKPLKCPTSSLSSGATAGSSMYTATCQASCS
Source text: as §1

GIP receptor = target: T3, GIP receptor (Homo sapiens, UniProt P48546); experiment: cAMP induction, firefly luciferase reporter assay in HEK293 cells co-transfected with GIP receptor
T3 sequence (P48546 22-466): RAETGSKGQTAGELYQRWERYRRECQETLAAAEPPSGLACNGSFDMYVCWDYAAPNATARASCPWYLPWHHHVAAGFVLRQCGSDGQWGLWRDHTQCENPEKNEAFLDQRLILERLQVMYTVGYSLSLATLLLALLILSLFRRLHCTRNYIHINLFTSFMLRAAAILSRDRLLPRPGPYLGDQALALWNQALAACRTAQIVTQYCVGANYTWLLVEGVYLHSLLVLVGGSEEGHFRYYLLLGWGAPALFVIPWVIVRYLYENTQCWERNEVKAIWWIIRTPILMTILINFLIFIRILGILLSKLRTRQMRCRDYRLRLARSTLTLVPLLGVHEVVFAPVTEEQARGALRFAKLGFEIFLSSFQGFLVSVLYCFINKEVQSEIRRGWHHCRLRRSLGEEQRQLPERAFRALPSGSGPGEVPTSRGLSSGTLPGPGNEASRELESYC

[1] = EC50 (nM) at glucagon receptor, Table 16, Example 24
[2] = EC50 (nM) at GLP-1 receptor, Table 16, Example 24
[3] = EC50 (nM) at GIP receptor, Table 16, Example 24

Compound: CCCCCCCCCCCCCCCC(=O)N[C@@H](CCC(=O)N[C@@H](CCC(=O)NCCCC[C@H](NC(=O)[C@H](CC(=O)O)NC(=O)[C@H](CO)NC(=O)[C@@H](NC(=O)[C@H](Cc1ccccc1)NC(=O)[C@@H](NC(=O)CNC(=O)[C@H](CCC(N)=O)NC(=O)C(C)(C)NC(=O)[C@@H](N)Cc1ccc(O)cc1)[C@@H](C)O)[C@@H](C)O)C(=O)N[C@@H](CO)C(=O)N[C@H](C(=O)N[C@@H](Cc1ccc(O)cc1)C(=O)N[C@@H](CC(C)C)C(=O)N[C@@H](CC(=O)O)C(=O)N[C@@H](CCCCN)C(=O)N[C@@H](CCC(N)=O)C(=O)N[C@@H](C)C(=O)N[C@@H](C)C(=O)NC(C)(C)C(=O)N[C@@H](CCC(=O)O)C(=O)N[C@@H](Cc1ccccc1)C(=O)N[C@H](C(=O)N[C@@H](CC(N)=O)C(=O)N[C@@H](Cc1c[nH]c2ccccc12)C(=O)N[C@@H](CC(C)C)C(=O)N[C@@H](CC(C)C)C(=O)N[C@@H](CC(=O)O)C(=O)NCC(=O)NCC(=O)N1CCC[C@H]1C(=O)N[C@@H](CO)C(=O)N[C@@H](CO)C(=O)NCC(=O)N[C@@H](C)C(=O)N1CCC[C@H]1C(=O)N1CCC[C@H]1C(=O)N1CCC[C@H]1C(=O)N[C@@H](CO)C(N)=O)C(C)C)[C@@H](C)CC)C(=O)O)C(=O)O [compound 91] (H-Y[Aib]QGTFTSDK([γGlu-γGlu-Palmitoyl])SIYLDKQAA[Aib]EFVNWLLDGGPSSGAPPPS-NH2; N-terminus assumed)
- EC50 (glucagon receptor; EC50 (nM) at Glucagon Receptor, Table 7, Example 13): 0.073 nM
- EC50 (GLP-1 receptor; EC50 (nM) at GLP-1 Receptor, Table 7, Example 13): 0.008 nM
- EC50 (GIP receptor; EC50 (nM) at GIP Receptor, Table 7, Example 13): 0.005 nM

Compound: H[Aib]QGTFTSDYSKYLDERAAQDFVQWLLDGGPSSGAPPPSK(X3)G-NH2 [SEQ ID NO: 176]
- EC50 (glucagon receptor): 0.012 nM
- EC50 (GLP-1 receptor; GLP-1 Receptor EC50, Table 10, Example 16): 0.014 nM
- EC50 (GIP receptor; GIP-1 Receptor EC50, Table 10, Example 16): 0.101 nM

Compound: H[Aib]QGTFTSDYSKYLDERAAQDFVQWLLAGGPSSGAPPPSK([γGlu-γGlu-Palmitoyl])G-NH2 [SEQ ID NO: 203]
- EC50 (glucagon receptor; [1]): 0.003 nM
- EC50 (GLP-1 receptor; [2]): 0.001 nM
- EC50 (GIP receptor; [3]): 0.007 nM

Compound: H[Aib]QGTFTSDYSKYLDERAAQDFVQWLLDGGPSSGAPPPSK([γGlu-γGlu-Palmitoyl])G-NH2 [SEQ ID NO: 89]
- EC50 (glucagon receptor; [1]): 0.006 nM
- EC50 (GLP-1 receptor; EC50 (nM) at GLP-1 receptor, Table 15, Example 23): 0.004 nM
- EC50 (GLP-1 receptor; [2]): 0.005 nM
- EC50 (GIP receptor; [3]): 0.028 nM
